# Source: US5281710A, “Dynemicin analogs: synthesis, methods of preparation and use” (The Scripps Research Institute, priority 1992, dated 1994)
# What was measured:
# [1] = system: SK-Mel-28 melanoma cells; test: Sulforhodamine B cytotoxicity, SK-Mel-28; type: cell-based; details: Homo sapiens, SK-MEL-28, SK-Mel-28; read-out: IC50
# Experimental: (§1) In addition to the screening already discussed, several of the before-described compounds and chimeras were screened against several or all of a panel of ten to twenty-five cancerous cell lines as target cells and seven "normal" cell preparations. This screening utilized a sulforhodamine B cytotoxidity assay as discussed below.
# (§2) IC50 values; i.e., the concentration of Compound required to kill one-half of the treated cells, were then calculated.
# [2] = system: Ovcar-4 ovarian carcinoma cells; test: Sulforhodamine B cytotoxicity, Ovcar-4; type: cell-based; details: Homo sapiens
# Experimental: as §1, §2
# [3] = system: H-522 lung cells; test: Sulforhodamine B cytotoxicity, H-522; type: cell-based; details: Homo sapiens, NCI-H522
# Experimental: as §1, §2
# [4] = system: RPMI-8226 cells; test: Sulforhodamine B cytotoxicity, RPMI-8226; type: cell-based; details: Homo sapiens
# Experimental: as §1, §2
# [5] = system: SK-Mel-28, M-14, M-21, Capan-1, Ovcar-3, Ovcar-4, UCLA-P-3, U-87, U-251 and Molt-4 cell lines; type: cell-based; details: ten tumor cell lines
# Experimental: In other studies, IC50 values were determined for the anti-tumor agents dynemicin A, calicheamicin γ1^I, taxol, vinblastine/vincristine, doxorubicin, actinomycin D and bleomycin sulfate against the SK-Mel-28, M-14, M-21, Capan-1, Ovcar-3, Ovcar-4, UCLA-P-3, U-87, U-251 and Molt-4 cell lines.
# [6] = system: EMT6 mammary tumor in Balb/c BYJ mice; test: In vivo EMT6 mammary tumor in Balb/c BYJ mice; set-up: species or system mouse; details: 10 mg/kg on days 1, 5 and 9
# Experimental: The data of FIG. 10 illustrate a further in vivo study using compound 153. Here, groups of 6-10 week old, female Balb/c BYJ mice (obtained from The Scripps Research Institute breeding colony, La Jolla, Calif.) (8 per group) were inoculated with 5×10^5 cells of the EMT6 tumor cell line, a mammary tumor. The mice were then treated with normal saline (control) or normal saline containing 10 mg/kg of Compound 153 (study) on days 1, 5 and 9 after the inoculation.
compound,measurement,setting,value
O=C(OCCS(=O)(=O)c1ccccc1)N1c2ccc(OCCO)cc2C23OC24CCCC3C#C/C=C\C#CC14 (centres unmarked) [Compound 153],IC50,[1],3100 nM
same,IC50,[2],780 nM
same,IC50,[3],98 nM
same,IC50,[4],7.7 nM
same,relative potency among agents across cell lines,[5],comparable to most of the other agents against the other cell lines
same,tumor growth of treated tumors,[6],"much slower, and almost linear"
same,tumor volume vs control,[6]; day 8,"slight difference in the average volume of the tumors, with the study group having a lower tumor burden"
same,control group's average tumor volume relative to study group,[6]; day 20,about seven
